Structures are written as SMILES.

Here are results for 1 molecule from patent US20080153792A1, “Drug Identification and Treatment Method” (priority 2006, published 2008).

In one assay the test system is DIO mice. Nature of the assay: diet induced obesity (DIO) mouse, OGTT. Format: in vivo. The following applies: 20, 40 or 80 mg/kg twice a day oral gavage up to 28 days. An excerpt: Diet induced obesity (DIO) mouse hyperglycemia treatment. The effect of a drug to enhance peripheral sensitivity to insulin can be studied in a mouse model in which a state of insulin resistance is attained by feeding the animals a fat-enriched diet (60% of total caloric intake) for at least 6 weeks. This model has been described, e.g., J. N. Thupari et al., Proc. Natl. Acad. Sci. USA, 99(14):9498-9502, 2002, H. Xu et al., J. Clin. Invest., 112:1821-1830, 2003, H. Takahashi et al., J. Biol. Chem., 278(47):46654-46660, 2003.
For these studies, animals of approximately 4 weeks of age were divided into groups of 10 animals each and then treated with a vehicle control (no drug) or 17α-ethynylandrost-5-ene-3β,7β,17β-triol by oral gavage. The 17α-ethynylandrost-5-ene-3β,7β,17β-triol was administered at 20 mg/kg, 40 mg/kg or 80 mg/kg twice a day for up to 28 days. At day 14 and day 28 during the dosing period an OGTT was performed.

Assay [1] has as its system human peripheral blood mononuclear cells (PBMC). Nature of the assay: human mixed lymphocyte reaction (MLR). To be noted: either 300 nM or 30 nM; 6 days; p>0.05. Format: cell-based. As to the method: Human mixed lymphocyte reaction (MLR). The capacity of 3β,16α-dihydroxy-17-oxoandrostane, 3β,17β-dihydroxy-16-oxoandrostane, 17α-ethynylandrost-5-ene-3β,7β,17β-triol, and 17β-aminoandrost-5-ene-3β-ol to affect antigen specific stimulation in which human T lymphocytes respond to a specific foreign antigen (major histocompatibility complex).
Blood samples were obtained from 3 (2 males, […]) fasting, healthy human volunteers of 23-31 years old. […] The subjects were bled between […] to limit possible fluctuations in the circulating levels of hormones or cytokines that could have influenced the in vitro responses of their lymphocytes. Peripheral blood mononuclear cells (PBMC) were isolated by centrifugation on Ficoll-Hypaque (density 1.077, Biochrom AG, Berlin, Germany) gradients and resuspended in culture medium (RPMI 1640 supplemented with 2 mM L-glutamine, penicillin (100 U/mL) and streptomycin ([…]) (Invitrogen s.rl., Milan, Italy). Autologous (responder) inactivated plasma was used at 10%. Five hundred thousand responder PBMC (PBMCr) and 500,000 allogeneic irradiated (30 Gy) stimulator PBMC (PBMCs) were mixed at a ratio of 1:1 in 200 μL medium and cultured for 6 days in flat bottom 96 well plates (Nunc, Roskilde, Denmark) at a concentration of 300 nM or 30 nM for each of the 4 compounds. The compounds were dissolved in ethanol and then diluted to the desired concentration with culture medium leading to a final solution containing 0.01% of ethanol. This vehicle was used as control. Controls also included PBMCr and PBMCs cultured separately. During the last 8 hours of the culture period the PBMC were pulsed with 1 μCi/well [^3H] thymidine (Amersham, Milan, Italy). The cells were then harvested and radioactivity incorporation measured with a beta cell counter. The mean cpm of quadruplicate wells was calculated. Proliferation of T cells was expressed as a stimulation index: SI=cpm (PMBCs xPBMCr)/cpm (PBMCr)+cpm (PBMCs). Statistical analysis was performed using the Student's t test. The cpm obtained from quadruplicate of each test compound were compared to proliferative responses obtained in control PBMCr and PBMCs cultured in the presence of the vehicle. Differences were considered significant at p<0.05.

In assay [2] the test system is mice treated daily with dexamethasone. Nature of the assay: osteoprotegerin levels in dexamethasone treated mice. Format: in vivo, mouse. To be noted: vehicle, dexamethasone 10 μg/day and compound at 4 mg/kg/day; p<0.05. As to the method:
Osteoprotegerin levels in mice that were treated with vehicle and dexamethasone at 10 μg/day (positive control group) had 3.3 pMol/L osteoprotegerin, while animals treated with vehicle, dexamethasone and 17α-ethynyl-5-androstene-3β,7β,17β-triol at 4 mg/kg/day had 6.4 pMol/L osteoprotegerin (p<0.05).

For assay [3], the system named is NF-κB in nuclei from spleen cells. Nature of the assay: kinetic analysis of NF-kB inhibition in vivo after LPS, Example 9. On the set-up: species or system mouse. To be noted: about 40 mg/kg i.p. 24 h before LPS. As to the method:
Kinetic analysis of NF-kB inhibition in vivo. […] The drug was injected 24 hours before intraperitoneal injection of bacterial LPS (about an LD50/24). The study used two groups of 12 animals, vehicle control or drug administered 24 hours before LPS challenge. Spleens were harvested from 3 animals from both groups just before LPS challenge and at 1.5, 2.0 and 2.5 hours after administration of LPS.
Maximum NF-κB activation after LPS administration occurred at 1.5 hours in the vehicle controls, which was 4-fold increased over the pre-LPS level of activated NF-κB. The values for the vehicle control and drug treated animals are relative optical density units from ELISA measurement of NF-κB in nuclei from spleen cells.

Take `C#C[C@]1(O)CC[C@H]2[C@@H]3[C@@H](O)C=C4C[C@@H](O)CC[C@]4(C)[C@H]3CC[C@@]21C` [17α-ethynylandrost-5-ene-3β,7β,17β-triol]: the “glucose intolerance (OGTT glycemic excursion) compared to vehicle” value in the assay with DIO mice is recorded as “notably reduced glucose intolerance”. In addition, in assay [1], the “immune suppression in the MLR” value is reported as “not appreciably immune suppressive”. Further, the osteoprotegerin in assay [2] is 6.4 pmol/L. Further, the “activated NF-κB in spleen cell nuclei (ELISA)” value in assay [3] (0 hours (just before LPS)) was 22 relative optical density units; in assay [3] (1.5 hours after LPS) it was 2 relative optical density units; in assay [3] (2.0 hours after LPS) it was 7 relative optical density units; in assay [3] (2.5 hours after LPS) it was 9 relative optical density units.
